# Test results: patent publication US20220143143A1, “USE OF ACTIVATORS OF THE ARYL HYDROCARBON RECEPTOR FOR TREATING GLUTEN-INDUCED GASTROINTESTINAL DISEASES” (McMaster University, priority 2019, published 2022)
# Key:
# Assay type in all cases: in vivo
# AhR pathway genes = experiment: qPCR expression of AhR pathway and inflammation genes in duodenum; conditions: gluten treated NOD/DQ8 mice; 1 μg/mouse i.p. at day 1, 10, 20 and 30; vs vehicle (DMSO)
# Procedure: AhR activation in duodenal biopsies was measured through qPCR to assess the expression of AhR pathway genes: AhR, CYP1A1, IL-22 and IL-17. IL-15 gene expression was also measured by qPCR as an inflammation marker. Total RNA was isolated from mouse duodenum samples using RNeasy Mini Kit (Qiagen, Hilden, Germany) with the DNase treatment, according to the manufacturer's instructions. RNA concentration was determined using a NanoDrop spectrophotometer […]. Quantitative RT-PCR was performed using iScript Reverse Transcriptase (Bio-Rad) and then a SsoFast EvaGreen Supermix (Bio-Rad) in a Mastercycler ep realplex apparatus (Eppendorf) with specific mouse oligonucleotides. Additional information on the primers used is available in Table 2. qPCR data were analyzed using the 2-ΔΔCt quantification method with mouse Gapdh as the endogenous control.
# NOD/DQ8 mice [1] = experiment: Gut barrier function by Ussing chamber technique (jejunum); conditions: gluten treated NOD/DQ8 mice, 1 μg/mouse i.p. at day 1, 10, 20 and 30, vs vehicle (DMSO)
# Procedure: Gut barrier function was assessed by a Ussing chamber technique. Briefly, sections of jejunum from each mouse were mounted in a Ussing Chamber with an opening of 0.6 cm^2. Net active transport across the epithelium was measured via a short circuit current response (Isc, μA) injected through the tissue under voltage-clamp conditions. Baseline Isc (μA/cm^2) was recorded at equilibrium 20 min after mounting jejunum sections. Mucosal-to-serosal transport of macromolecules was assessed by adding ^51Cr-EDTA in the luminal side of the chamber. ^51Cr-EDTA fluxes were calculated by measuring the proportion of radioactive ^51Cr-EDTA detected in the serosal side of the chamber after 2 hours compared to the radioactive ^51Cr-EDTA placed in the luminal side at the beginning of experiment.
# NOD/DQ8 mice [2] = experiment: Histology and immunohistochemistry of proximal small intestine (V/C ratios, CD3+ IEL counts); conditions: gluten treated NOD/DQ8 mice; 1 μg/mouse i.p. at day 1, 10, 20 and 30; vs vehicle (DMSO)
# Procedure: For histology and immunohistochemistry studies, cross-sections of the proximal small intestine were fixed in 10% formalin and embedded in paraffin. Enteropathy was determined by measuring villus-to-crypt (V/C) ratios in a blinded fashion. The presence of IELs (intraepithelial lymphocytes) in the sections was determined by immunostaining for CD3+ cells. Briefly, sections were stained with polyclonal rabbit anti-mouse CD3 (Dako) and in each section, and intraepithelial lymphocytosis was determined by counting CD3+ IELs per 20 enterocytes in five randomly chosen villus tips.
# NOD/DQ8 mice [3] = experiment: Fecal lipocalin-2 quantification; conditions: gluten treated NOD/DQ8 mice; 1 μg/mouse i.p. at day 1, 10, 20 and 30; vs vehicle (DMSO)
smiles,measurement,setting,value
"O=Cc1c2c(cc3c1=Nc1ccccc1-3)=Nc1ccccc1-2 [Ficz, 6-formylindolo(3,2-b) carbazole]",intestinal IL-15 expression,AhR pathway genes,did not affect
same,"intestinal expression of AhR target genes (Cyp1a1, Il22, Il17)",AhR pathway genes,even higher expression
same,paracellular permeability,NOD/DQ8 mice [1]; 51Cr-EDTA,improved
same,ion transport,NOD/DQ8 mice [1],improved
same,IEL counts,NOD/DQ8 mice [2],improved
same,V/C ratios,NOD/DQ8 mice [2],improved
same,"other markers of overall gut inflammation (fecal lipocalin-2, FIG. 17)",NOD/DQ8 mice [3],improved
